Results on 13 compounds are retold here after US8501804B2, “Bicyclic compound” (Takeda Pharmaceutical Company Limited, priority 2008, dated 2013).

One assay concerns the target T1, human ACC2 (Nd) (Homo sapiens, UniProt O00763).
T1 construct: His6 (from vector pFAST-BacHTa); made in house; host or cells: SF-9 insect cells, recombinant baculovirus BAC-ACC2 (Nd)
Kind of assay: ACC2 inhibitory activity (malachite green). Type of assay: biochemical. As to conditions: test compound 10 μM; for inhibition at 10 µM: read-out: ACC2 10 μM inhibitory rate (%). As to the method:
The ACC2 inhibitory action of the compound of the present invention was evaluated by the following method.
(1) Cloning of Human ACC2 Gene and Preparation of Recombinant Baculovirus
Human ACC2 gene was cloned by PCR using a human skeletal muscle cDNA library (Clontech) as a template and Primer 1 and Primer 2 shown below. Primer 1 and Primer 2 were prepared by adding SalI, XbaI restriction enzyme recognition sequences based on the information of the base sequence of human ACC2 gene (Genbank Accession U89344).
PCR was performed using Pyrobest DNA polymerase (TAKARA BIO INC.). The obtained PCR product was cloned to pT7 Blue vector (Novagen) and, after confirmation of the base sequence, digested with restriction enzymes SalI and XbaI. The obtained DNA fragment was inserted into pFAST-BacHTa (Invitrogen) digested with restriction enzymes SalI and XbaI to give expression plasmid ACC2/pFAST-BacHTa.
A plasmid for expression of ACC2 without a mitochondrial targeting sequence was prepared by PCR using the expression plasmid as a template, and Primer 3 (SalI restriction enzyme recognition sequence was added) and Primer 4 prepared by reference to the information of human ACC2 gene base sequence (Genbank Accession U89344).
PCR was performed using Pyrobest-DNA polymerase (TAKARA BIO INC.). The obtained PCR product was cloned to pT7 Blue vector (Novagen) and, after confirmation of the base sequence, digested with restriction enzymes SalI and AflII. The obtained DNA fragment was inserted into ACC2/pFAST-BacHTa digested with restriction enzymes SalI and AflII to give expression plasmid ACC2mito7/pFAST-BacHTa.
Using the expression plasmid ACC2mito7/pFAST-BacHTa and BAC-TO-BAC Baculovirus Expression System (Invitrogen), virus stock BAC-ACC2 of recombinant Baculovirus (N terminal deleted (hereinafter Nd)) was prepared.
(2) Preparation of ACC2 (Nd) Protein
SF-9 cells (Invitrogen) were inoculated to a medium (2 L) for insect cells (Sf-900IISFM medium (Invitrogen) containing 10% fetal bovine serum (Trace), 50 mg/L Gentamicin (Invitrogen), 0.1% Pluronic F-68 (Invitrogen)) at 0.5×10^6 cells/mL, and cultured with shaking in Wave Bioreactor (Wave) at 27° C., 20 rpm, rocking angle 6°, oxygen concentration 30%.
On day 4 of the culture, 3 L of the medium for insect cells was added, the rocking angle was set to 8°, and the cells were cultured. On day 5 of the culture, 100 ml of recombinant Baculovirus BAC-ACC2 (Nd) was added, 5 L of the medium for insect cells was further added, the rocking angle was set to 11°, and the cells were cultured for 3 days. The culture medium was centrifuged at 1000×g for 10 min to give virus-infected cells. The cells were washed with phosphate buffered saline (Invitrogen) and centrifuged under the same conditions. The obtained cells were cryopreserved at −80° C.
The cryopreserved cells were thawed in ice and suspended in 900 ml of 25 mM HEPES buffer (pH 7.5) containing 10% Glycerol, 0.13 M NaCl, 1 mM EDTA, 25 mM Sodium β-Glycerophosphate and 1 mM Sodium Orthovanadate, and supplemented with Complete Protease Inhibitor (Nippon Boehringer Ingelheim Co., Ltd.). The obtained suspension was homogenized three times in a polytron homogenizer (Kinematica) at 20,000 rpm for 30 sec. The obtained cell disruption solution was clarified by centrifugation at 31000×g for 60 min, and filtered through a 0.45 μm filter. The filtrate was passed through a column packed with 60 mL of Ni-NTA Super Flow Gel (QUIAGEN) at a flow rate of about 5 mL/min. The column was washed with buffer A (50 mM HEPES (pH 7.5) containing 0.3 M NaCl), further washed with buffer A containing 20 mM Imidazole, and eluted with buffer A containing 100 mM Imidazole. The eluate was concentrated with Vivaspin 20 (Vivascience) with a molecular weight cut off of 30K. The obtained concentrate was dialyzed against 50 mM HEPES (pH 7.5) containing 10 mM MgCl2, 2 mM Dithiothreitol, 10 mM Tripotassium Citrate and 0.3 M NaCl. The inner dialysate was filtered through a 0.22 μm filter to give ACC2 (Nd). […]

The target in another assay is T2, human ACC1 (Homo sapiens, UniProt Q13085).
T2 construct: His6 (from vector pFAST-BacHTc); made in house; host or cells: SF-9 insect cells, recombinant baculovirus BAC-ACC1
Kind of assay: ACC1 inhibitory activity (malachite green). Type of assay: biochemical. The note with it: test compound 10 μM; for inhibition at 10 µM: read-out: ACC1 10 μM inhibitory rate (%). As to the method: The ACC1 inhibitory action of the compound of the present invention was evaluated by the following method.
(1) Cloning of Human ACC1 Gene and Preparation of Recombinant Baculovirus
Human ACC1 gene was cloned by PCR using a human liver cDNA library (Clontech) as a template and Primer 1 and Primer 2 shown below. Primer 1 and Primer 2 were prepared by adding SalI, NotI restriction enzyme recognition sequences based on the information of the base sequence of human ACC1 gene (Genbank Accession U19822).
PCR was performed using Pyrobest DNA polymerase (TAKARA BIO INC.). The obtained PCR product was cloned to pT7 Blue vector (Novagen) and, after confirmation of the base sequence, digested with restriction enzymes SalI and NotI. The obtained DNA fragment was inserted into pFAST-BacHTc (Invitrogen) digested with restriction enzymes SalI and NotI to give expression plasmid ACC1/pFAST-BacHTc.
Using the expression plasmid ACC1/pFAST-BacHTc and BAC-TO-BAC Baculovirus Expression System (Invitrogen), virus stock BAC-ACC1 of recombinant Baculovirus was prepared.
(2) Preparation of ACC1 Protein
SF-9 cells (Invitrogen) were inoculated to a medium (1 L) for insect cells (Sf-900IISFM medium (Invitrogen) containing 10% fetal bovine serum (Trace), 50 mg/L Gentamicin (Invitrogen), 0.1% Pluronic F-68 (Invitrogen)) at 1×10^6 cells/mL, and cultured with shaking in 2 L meyer at 27° C., 100 rpm.
After 24 hr of the culture, 10 mL of recombinant Baculovirus BAC-ACC1 was added, and the cells were cultured for 3 days. The culture medium was centrifuged at 1000×g for 5 min to give virus-infected cells. The cells were washed with phosphate buffered saline (Invitrogen) and centrifuged under the same conditions. The obtained cells were cryopreserved at −80° C.
The cryopreserved cells were thawed in ice and suspended in 100 mL of 25 mM HEPES buffer (pH 7.5) containing 10% Glycerol, 0.13 M NaCl, 1 mM EDTA, 25 mM Sodium […] and 1 mM Sodium Orthovanadate, and supplemented with Complete Protease Inhibitor (Nippon Boehringer Ingelheim Co., Ltd.). The obtained suspension was homogenized three times in a polytron homogenizer (Kinematica) at 20,000 rpm for 30 sec. The obtained cell disruption solution was clarified by centrifugation at 185700×g for 50 min, and filtered through a 0.45 μm filter. The filtrate was passed through a column packed with 12 ml of Ni-NTA Super Flow Gel (QUIAGEN) at a flow rate of about 5 mL/min. The column was washed with buffer A (50 mM HEPES (pH 7.5) containing 0.3 M NaCl), further washed with buffer A containing 20 mM Imidazole, and eluted with buffer A containing 100 mM Imidazole. The eluate was concentrated with Vivaspin 20 (Vivascience) with a molecular weight cut off of 30K. The obtained concentrate was dialyzed against Sephadex G-25 (Amersham Biosciences, 358 mL) equilibrated with 50 mM HEPES (pH 7.5) containing 10 mM MgCl2, 2 mM Dithiothreitol, 10 mM Tripotassium Citrate and 0.3 M NaCl. The inner dialysate was concentrated with Vivaspin 20 (Vivascience) with molecular weight cut off of 30K, and concentrate was filtered through a 0.22 μm filter to give ACC1. The obtained ACC1 was cryopreserved at −80° C.
(3) Measurement of ACC1 Inhibitory Activity
ACC1 (0.93 mg/ml) obtained in the above-mentioned (2) was diluted with an enzyme reaction buffer (50 mM HEPES (pH 7.5), 10 mM MgCl2, 10 mM Tripotassium Citrate, 2 mM Dithiothreitol, 0.75 mg/ml Fatty acid free BSA) to a concentration of 8 μg/ml, and the mixture was added to each well of a 384 well assay plate (Nunc 265196) by 10 μl. A test compound was dissolved in dimethyl sulfoxide (DMSO) and the mixture was diluted with an enzyme reaction buffer and the resulting solution (5 μl) was added to each well. The mixture was incubated at 30° C. for 60 min. Then, a substrate solution (50 mM KHCO3, 200 μM ATP, 200 μM Acetyl-CoA, 5 μl) was added to each well, and the mixture was reacted at 30° C. for 20 min (test compound addition group). […]

T1 sequence (O00763 117-2458 limits assumed): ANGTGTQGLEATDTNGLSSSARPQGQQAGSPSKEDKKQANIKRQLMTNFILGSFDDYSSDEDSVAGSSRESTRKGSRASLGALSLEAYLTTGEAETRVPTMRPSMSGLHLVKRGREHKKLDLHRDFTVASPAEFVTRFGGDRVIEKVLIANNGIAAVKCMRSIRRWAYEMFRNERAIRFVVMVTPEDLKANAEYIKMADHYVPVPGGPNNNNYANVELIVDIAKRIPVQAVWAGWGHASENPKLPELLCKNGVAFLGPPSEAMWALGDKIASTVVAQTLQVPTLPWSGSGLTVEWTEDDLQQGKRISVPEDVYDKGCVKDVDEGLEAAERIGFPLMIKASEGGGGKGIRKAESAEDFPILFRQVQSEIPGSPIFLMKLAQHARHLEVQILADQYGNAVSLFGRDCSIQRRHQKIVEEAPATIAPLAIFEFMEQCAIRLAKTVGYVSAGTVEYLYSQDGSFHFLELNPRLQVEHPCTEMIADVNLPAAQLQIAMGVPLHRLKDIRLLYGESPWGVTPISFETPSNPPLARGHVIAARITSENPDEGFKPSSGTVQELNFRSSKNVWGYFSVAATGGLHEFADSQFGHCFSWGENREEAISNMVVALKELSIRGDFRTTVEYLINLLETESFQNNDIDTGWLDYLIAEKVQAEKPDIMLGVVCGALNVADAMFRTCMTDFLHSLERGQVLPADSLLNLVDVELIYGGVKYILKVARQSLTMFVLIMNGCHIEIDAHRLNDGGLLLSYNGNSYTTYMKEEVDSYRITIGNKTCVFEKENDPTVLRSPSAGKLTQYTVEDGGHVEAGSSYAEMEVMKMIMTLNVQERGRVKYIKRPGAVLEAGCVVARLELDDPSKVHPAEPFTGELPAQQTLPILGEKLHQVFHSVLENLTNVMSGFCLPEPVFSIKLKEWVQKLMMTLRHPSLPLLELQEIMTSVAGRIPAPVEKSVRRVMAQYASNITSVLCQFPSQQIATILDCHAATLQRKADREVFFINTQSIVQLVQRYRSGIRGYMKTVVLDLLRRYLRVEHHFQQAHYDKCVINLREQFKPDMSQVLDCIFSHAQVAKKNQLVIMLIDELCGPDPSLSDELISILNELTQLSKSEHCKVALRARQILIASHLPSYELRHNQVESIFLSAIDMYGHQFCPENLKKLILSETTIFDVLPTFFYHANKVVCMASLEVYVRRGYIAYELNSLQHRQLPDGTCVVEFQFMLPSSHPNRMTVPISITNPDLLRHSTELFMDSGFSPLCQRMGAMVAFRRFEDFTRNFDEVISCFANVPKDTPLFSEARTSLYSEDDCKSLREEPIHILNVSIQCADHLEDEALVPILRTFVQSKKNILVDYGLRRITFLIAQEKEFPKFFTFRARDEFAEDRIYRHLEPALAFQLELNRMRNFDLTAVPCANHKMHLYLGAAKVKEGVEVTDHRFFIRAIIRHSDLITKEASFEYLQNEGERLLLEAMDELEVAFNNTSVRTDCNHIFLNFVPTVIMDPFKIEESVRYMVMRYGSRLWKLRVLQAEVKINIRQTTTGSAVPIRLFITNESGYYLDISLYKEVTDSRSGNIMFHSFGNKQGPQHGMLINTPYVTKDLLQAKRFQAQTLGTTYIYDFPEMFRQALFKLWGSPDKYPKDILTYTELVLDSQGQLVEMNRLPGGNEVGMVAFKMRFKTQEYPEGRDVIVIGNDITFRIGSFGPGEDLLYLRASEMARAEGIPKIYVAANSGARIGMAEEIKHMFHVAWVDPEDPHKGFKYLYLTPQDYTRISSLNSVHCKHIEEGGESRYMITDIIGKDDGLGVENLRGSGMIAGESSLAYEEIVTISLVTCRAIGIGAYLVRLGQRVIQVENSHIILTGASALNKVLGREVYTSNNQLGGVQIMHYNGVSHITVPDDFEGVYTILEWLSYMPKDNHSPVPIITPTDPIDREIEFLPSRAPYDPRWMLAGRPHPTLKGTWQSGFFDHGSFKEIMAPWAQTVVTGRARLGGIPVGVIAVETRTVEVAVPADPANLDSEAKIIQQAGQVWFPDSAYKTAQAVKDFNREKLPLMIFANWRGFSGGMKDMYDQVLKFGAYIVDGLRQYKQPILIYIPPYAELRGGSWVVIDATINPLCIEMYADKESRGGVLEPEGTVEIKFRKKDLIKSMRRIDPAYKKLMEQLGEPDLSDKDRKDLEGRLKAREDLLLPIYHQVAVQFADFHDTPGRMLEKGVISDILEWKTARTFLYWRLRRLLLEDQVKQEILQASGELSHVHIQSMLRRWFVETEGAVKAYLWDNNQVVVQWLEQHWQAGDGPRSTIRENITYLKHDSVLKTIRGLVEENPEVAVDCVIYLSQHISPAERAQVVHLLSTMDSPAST

For the compound `CC(Nc1ccon1)c1cc2ccc(CCc3ccc(OCC4CC4)cc3)cc2o1` (centres unmarked) [Example 176, N-[1-(6-{2-[4-(cyclopropylmethoxy)phenyl]ethyl}-1-benzofuran-2-yl)ethyl]isoxazol-3-amine], the inhibition at 10 µM on human ACC2 (Nd) amounted to 88%; at human ACC1 it was 31%.

On to `CCOc1ccc(CCc2ccc3cc(C(C)Nc4ccon4)oc3c2)cc1` (centres unmarked) [Example 124, N-(1-{6-[2-(4-ethoxyphenyl)ethyl]-1-benzofuran-2-yl}ethyl)isoxazol-3-amine], for which the inhibition at 10 µM was found to be 81% on human ACC2 (Nd) and 16% at human ACC1.

For the compound `CC(=O)NC(C)c1cc2ccc(CCc3ccc4c(c3)C(C)(C)CO4)cc2o1` (centres unmarked) [Example 152, N-(1-{6-[2-(3,3-dimethyl-2,3-dihydro-1-benzofuran-5-yl)ethyl]-1-benzofuran-2-yl}ethyl)acetamide], the inhibition at 10 µM on human ACC2 (Nd) was 78%; on human ACC1, 39%.

As to `CC(=O)NC(C)c1cc2ccc(CCc3ccc4c(c3)CCO4)cc2o1` (centres unmarked) [Example 94, N-(1-{6-[2-(2,3-dihydro-1-benzofuran-5-yl)ethyl]-1-benzofuran-2-yl}ethyl)acetamide], the inhibition at 10 µM at human ACC2 (Nd) worked out at 80%; at human ACC1, 19%.

On to `CCOc1ccc(COc2ccc3cc(C(C)NC(C)=O)sc3c2)cc1` (centres unmarked) [Example 19, N-(1-{6-[(4-ethoxybenzyl)oxy]-1-benzothiophen-2-yl}ethyl)acetamide], for which the results for the inhibition at 10 µM on human ACC2 (Nd) and on human ACC1 were 78% and 24%, respectively.

With `CC(=O)N[C@@H](C)[C@@H]1Cc2ccc(OCc3ccc(OCC4CC4)nc3F)cc2O1` [Example 143, N-{(1S)-1-[(2S)-6-{[6-(cyclopropylmethoxy)-2-fluoropyridin-3-yl]methoxy}-2,3-dihydro-1-benzofuran-2-yl]ethyl}acetamide], the inhibition at 10 µM at human ACC2 (Nd) worked out at 73%; on human ACC1, 8%.

As for `CCOc1ccc(CCc2cnc3cc([C@H](C)NC(C)=O)oc3c2)cc1` [Example 107, N-[(1S)-1-{6-[2-(4-ethoxyphenyl)ethyl]furo[3,2-b]pyridin-2-yl}ethyl]acetamide], the inhibition at 10 µM was 70% on human ACC2 (Nd) and 12% on human ACC1.

Consider `CC(=O)N[C@@H](C)[C@@H]1Cc2ccc(C#Cc3ccc(OCC4CC4)nc3)cc2O1` [Example 139, N-{(1S)-1-[(2S)-6-{[6-(cyclopropylmethoxy)pyridin-3-yl]ethynyl}-2,3-dihydro-1-benzofuran-2-yl]ethyl}acetamide], for which the inhibition at 10 µM at human ACC2 (Nd) was 100%; at human ACC1, 37%.

In the case of `CC(=O)NC(C)c1cc2ccc(CCc3ccc(OC4CCCC4)cc3)cc2o1` (centres unmarked) [Example 170, N-[1-(6-{2-[4-(cyclopentyloxy)phenyl]ethyl}-1-benzofuran-2-yl)ethyl]acetamide], the inhibition at 10 µM on human ACC2 (Nd) came to 84%; at human ACC1 it was 30%.

Take `CCOc1ccc(CCc2ccc3cc(C(C)NC(C)=O)oc3n2)cc1` (centres unmarked) [Example 123, N-(1-{6-[2-(4-ethoxyphenyl)ethyl]furo[2,3-b]pyridin-2-yl}ethyl)acetamide]: the inhibition at 10 µM on human ACC2 (Nd) was 78%; at human ACC1 it was 8%.

With `CC(=O)NC(C)c1cc2cc(OCc3ccc(OCC4CC4)cc3)ccc2o1` (centres unmarked) [Example 132 (retention time longer), N-[1-(5-{[4-(cyclopropylmethoxy)benzyl]oxy}-1-benzofuran-2-yl)ethyl]acetamide], the inhibition at 10 µM at human ACC2 (Nd) was found to be 91%; at human ACC1, 46%.

Turning to `CC(=O)NC(C)c1cc2ccc(CCc3ccc(OCC4CC4)cc3)cc2o1` (centres unmarked) [Example 191 (retention time shorter), N-[1-(6-{2-[4-(cyclopropylmethoxy)phenyl]ethyl}-1-benzofuran-2-yl)ethyl]acetamide], the “ACC2 10 μM inhibitory rate (%)” value on human ACC2 (Nd) is 75%. For the same compound, at human ACC1, the “ACC1 10 μM inhibitory rate (%)” value is reported as 20%.

With `CCOc1ccc(COc2ccc3cc(C(C)NC(C)=O)oc3c2)cc1Br` (centres unmarked) [Example 175, N-(1-{6-[(3-bromo-4-ethoxybenzyl)oxy]-1-benzofuran-2-yl}ethyl)acetamide], the inhibition at 10 µM came to 74% on human ACC2 (Nd) and 15% at human ACC1.
